Data: patent US20240343704A1, “HALO-SUBSTITUTED AMINO PYRIDINE COMPOUNDS AS INHIBITORS OF THE HAEMATOPOIETIC PROGENITOR KINASE 1 (HPK1)” (priority 2021, published 2024)

Biological target: T1, Recombinant (1-346) HPK1 (h) (Homo sapiens, UniProt Q92918)
T1 construct: Recombinant (1-346) HPK1 (h) is incubated with 8 mM MOPS pH 7.0
T1 sequence (Q92918 1-346): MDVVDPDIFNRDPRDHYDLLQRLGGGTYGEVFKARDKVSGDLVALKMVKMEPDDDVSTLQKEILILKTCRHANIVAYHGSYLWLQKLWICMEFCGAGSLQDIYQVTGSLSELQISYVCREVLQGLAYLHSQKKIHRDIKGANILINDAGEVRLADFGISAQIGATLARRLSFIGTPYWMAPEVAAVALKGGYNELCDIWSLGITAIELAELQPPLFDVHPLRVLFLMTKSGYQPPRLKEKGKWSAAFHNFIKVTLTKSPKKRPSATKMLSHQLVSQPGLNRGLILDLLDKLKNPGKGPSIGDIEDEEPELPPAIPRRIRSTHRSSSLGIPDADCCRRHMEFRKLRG
Assay: HPK1 Human STE Kinase Enzymatic Radiometric Assay
Type: biochemical
Conditions: read-out: HPK1 IC50 nM Range*
Method: A stock solution of 10 mM of test compound is prepared in DMSO. The compound plate was prepared by 3-fold and 9-point serial dilutions. […] The reaction is initiated by The addition of the Mg/ATP mix. After incubation for 40 minutes at RT, the reaction is stopped by the addition of phosphoric acid to a concentration of 0.5%.

Row | IC50 [nM] | Compound
1 | 0.1 to 10 | Nc1nc(F)c(-c2ccc(N3CCCCC3)cc2)cc1-c1ccc2c(c1)CCNC2=O [I-60, 6-(2-amino-6-fluoro-5-(4-(piperidin-1-yl)phenyl)pyridin-3-yl)-3,4-dihydroisoquinolin-1(2H)-one]
2 | 0.1 to 10 | Nc1nc(F)c(-c2ccc(CN3CCOCC3)cc2)cc1-c1cc(F)c2c(c1)CCNC2=O [I-360, 6-(2-amino-6-fluoro-5-(4-(morpholinomethyl)phenyl)pyridin-3-yl)-8-fluoro-3,4-dihydroisoquinolin-1(2H)-one]
3 | 0.1 to 10 | Nc1nc(F)c(-c2ccc(N3CCOCC3)c(F)c2)cc1-c1cc(F)c2c(c1)CCNC2=O [I-361, 6-(2-amino-6-fluoro-5-(3-fluoro-4-morpholinophenyl)pyridin-3-yl)-8-fluoro-3,4-dihydroisoquinolin-1(2H)-one]
4 | 11 to 100 | CCN(C)Cc1cc(-c2cc(-c3ccc4c(c3)CCNC4=O)c(N)nc2F)ccc1C1CCOCC1 [I-428, 6-(2-amino-5-(3-((ethyl(methyl)amino)methyl)-4-(tetrahydro-2H-pyran-4-yl)phenyl)-6-fluoropyridin-3-yl)-3,4-dihydroisoquinolin-1(2H)-one]
5 | 0.1 to 10 | CN(C)Cc1cc(-c2cc(-c3cc4c(cc3F)C(=O)NCC4)c(N)nc2F)ccc1N1CCOCC1 [I-433, 6-(2-amino-5-(3-((dimethylamino)methyl)-4-morpholinophenyl)-6-fluoropyridin-3-yl)-7-fluoro-3,4-dihydroisoquinolin-1(2H)-one]
6 | 101 to 1000 | CN1CCC[C@H]1c1cccc(-c2cc(-c3ccc4c(c3)CCNC4=O)c(N)nc2F)c1 [I-443, (S)-6-(2-amino-6-fluoro-5-(3-(1-methylpyrrolidin-2-yl)phenyl)pyridin-3-yl)-3,4-dihydroisoquinolin-1(2H)-one]
7 | 11 to 100 | CN1CCC[C@H]1c1cccc(-c2cc(-c3cc4c(cc3F)C(=O)NCC4)c(N)nc2F)c1 [I-444, (S)-6-(2-amino-6-fluoro-5-(3-(1-methylpyrrolidin-2-yl)phenyl)pyridin-3-yl)-7-fluoro-3,4-dihydroisoquinolin-1(2H)-one]
8 | 0.1 to 10 | CN(C)Cc1cc(-c2cc(-c3cc4c(cc3F)C(=O)NCC4)c(N)nc2F)ccc1N1CCN(CCCC(F)F)CC1 [I-447, 6-(2-amino-5-(4-(4-(4,4-difluorobutyl)piperazin-1-yl)-3-((dimethylamino)methyl)phenyl)-6-fluoropyridin-3-yl)-7-fluoro-3,4-dihydroisoquinolin-1(2H)-one]
9 | 0.1 to 10 | COCCN1CCc2c(C)cc(-c3cc(-c4ccc5c(c4)CCNC5=O)c(N)nc3F)cc2C1 [I-448, 6-(2-amino-6-fluoro-5-(2-(2-methoxyethyl)-5-methyl-1,2,3,4-tetrahydroisoquinolin-7-yl)pyridin-3-yl)-3,4-dihydroisoquinolin-1(2H)-one]

Further lines, the molecule ahead of its results:

Row | Compound | IC50 [nM]
10 | Nc1nc(F)c(-c2ccc(OC3CCNCC3)c(C(F)(F)F)c2)cc1-c1ccc2c(c1)CCNC2=O [I-190, 6-(2-amino-6-fluoro-5-(4-(piperidin-4-yloxy)-3-(trifluoromethyl)phenyl)pyridin-3-yl)-3,4-dihydroisoquinolin-1(2H)-one] | 11 to 100
11 | CC(=O)N1CCC(Oc2ccc(-c3cc(-c4cc5c(cc4F)C(=O)NCC5)c(N)nc3F)cc2C#N)CC1 [I-291, 2-((1-acetylpiperidin-4-yl)oxy)-5-(6-amino-2-fluoro-5-(7-fluoro-1-oxo-1,2,3,4-tetrahydroisoquinolin-6-yl)pyridin-3-yl)benzonitrile] | 0.1 to 10
12 | CC(C)N1CCN(c2ccc(-c3cc(-c4ccc5c(=O)[nH]c(C6CC6)nc5c4)c(N)nc3F)cc2)CC1 [I-412, 7-(2-amino-6-fluoro-5-(4-(4-isopropylpiperazin-1-yl)phenyl)pyridin-3-yl)-2-cyclopropylquinazolin-4(3H)-one] | 101 to 1000
13 | CC(C)N1CCN(c2ccc(-c3cc(-c4ccc5c(=O)[nH]c(C6CCC6)nc5c4)c(N)nc3F)cc2)CC1 [I-413, 7-(2-amino-6-fluoro-5-(4-(4-isopropylpiperazin-1-yl)phenyl)pyridin-3-yl)-2-cyclobutylquinazolin-4(3H)-one] | 101 to 1000
14 | CC(C)N1CCN(c2ccc(-c3cc(-c4ccc5c(=O)[nH]c(Cl)nc5c4)c(N)nc3F)cc2)CC1 [I-418, 7-(2-amino-6-fluoro-5-(4-(4-isopropylpiperazin-1-yl)phenyl)pyridin-3-yl)-2-chloroquinazolin-4(3H)-one] | 101 to 1000
15 | COc1nc2cc(-c3cc(-c4ccc(N5CCN(C(C)C)CC5)cc4)c(F)nc3N)ccc2c(=O)[nH]1 [I-419, 7-(2-amino-6-fluoro-5-(4-(4-isopropylpiperazin-1-yl)phenyl)pyridin-3-yl)-2-methoxyquinazolin-4(3H)-one] | 11 to 100
16 | CC(C)N1CCN(c2ccc(-c3cc(-c4ccc5c(=O)[nH]c(N(C)C)nc5c4)c(N)nc3F)cc2)CC1 [I-420, 7-(2-amino-6-fluoro-5-(4-(4-isopropylpiperazin-1-yl)phenyl)pyridin-3-yl)-2-(dimethylamino)quinazolin-4(3H)-one] | 101 to 1000
17 | CNc1nc2cc(-c3cc(-c4ccc(N5CCN(C(C)C)CC5)cc4)c(F)nc3N)ccc2c(=O)[nH]1 [I-421, 7-(2-amino-6-fluoro-5-(4-(4-isopropylpiperazin-1-yl)phenyl)pyridin-3-yl)-2-(methylamino)quinazolin-4(3H)-one] | 11 to 100
18 | CC(C)N1CCN(c2ccc(-c3cc(-c4ccc5c(=O)[nH]c(N)nc5c4)c(N)nc3F)cc2)CC1 [I-422, 2-amino-7-(2-amino-6-fluoro-5-(4-(4-isopropylpiperazin-1-yl)phenyl)pyridin-3-yl)quinazolin-4(3H)-one] | 0.1 to 10
19 | CC(C)N1CCN(c2ccc(-c3cc(-c4ccc5c(c4)S(=O)(=O)CNC5=O)c(N)nc3F)cc2)CC1 [I-424, 7-(2-amino-6-fluoro-5-(4-(4-isopropylpiperazin-1-yl)phenyl)pyridin-3-yl)-2,3-dihydro-4H-benzo[e][1,3]thiazin-4-one 1,1-dioxide] | 11 to 100
20 | CN1CC2(CCN(c3ccc(-c4cc(-c5ccc6c(c5)CCNC6=O)c(N)nc4F)cc3)CC2)C1 [I-430, 6-(2-amino-6-fluoro-5-(4-(2-methyl-2,7-diazaspiro[3.5]nonan-7-yl)phenyl)pyridin-3-yl)-3,4-dihydroisoquinolin-1(2H)-one] | 0.1 to 10
21 | COc1cc2c(cc1-c1cc(-c3ccc4c(c3)CCNC4=O)c(N)nc1F)CN(C)CC2 [I-438, 6-(2-amino-6-fluoro-5-(6-methoxy-2-methyl-1,2,3,4-tetrahydroisoquinolin-7-yl)pyridin-3-yl)-3,4-dihydroisoquinolin-1(2H)-one] | 11 to 100
22 | CN(C)Cc1cc(-c2cc(-c3ccc4c(c3)CCNC4=O)c(N)nc2F)ccc1N1CCN(C(=O)OC(C)(C)C)CC1 [I-442, tert-butyl 4-(4-(6-amino-2-fluoro-5-(1-oxo-1,2,3,4-tetrahydroisoquinolin-6-yl)pyridin-3-yl)-2-((dimethylamino)methyl)phenyl)piperazine-1-carboxylate] | 0.1 to 10
23 | COC1(C)NC(=O)c2ccc(-c3cc(-c4ccc(N5CCN(C(C)C)CC5)cc4)c(F)nc3N)cc2C1(F)F (centres unmarked) [I-450, 6-(2-amino-6-fluoro-5-(4-(4-isopropylpiperazin-1-yl)phenyl)pyridin-3-yl)-4,4-difluoro-3-methoxy-3-methyl-3,4-dihydroisoquinolin-1(2H)-one] | 11 to 100
24 | CN(C)Cc1cc(-c2cc(-c3cc4c(cc3F)C(=O)NCC4)c(N)nc2F)ccc1N1CCN(C2CCCC2)CC1 [I-452, 6-(2-amino-5-(4-(4-cyclopentylpiperazin-1-yl)-3-((dimethylamino)methyl)phenyl)-6-fluoropyridin-3-yl)-7-fluoro-3,4-dihydroisoquinolin-1(2H)-one] | 0.1 to 10
25 | CN(C)Cc1cc(-c2cc(-c3ccc4c(=O)[nH]ccc4c3)c(N)nc2F)ccc1N1CCN(CCCC(F)F)CC1 [I-453, 6-(2-amino-5-(4-(4-(4,4-difluorobutyl)piperazin-1-yl)-3-((dimethylamino)methyl)phenyl)-6-fluoropyridin-3-yl)isoquinolin-1(2H)-one] | 0.1 to 10
26 | Cc1[nH]c(=O)c2ccc(-c3cc(-c4ccc(N5CCN(CC6CC6)CC5)cc4)c(F)nc3N)cc2c1F [I-456, 6-(2-amino-5-(4-(4-(cyclopropylmethyl)piperazin-1-yl)phenyl)-6-fluoropyridin-3-yl)-4-fluoro-3-methylisoquinolin-1(2H)-one] | 0.1 to 10
27 | CC(C)N1CCN(c2ccc(-c3cc(-c4ncc5c(n4)CCNC5=O)c(N)nc3F)cc2)CC1 [I-458, 2-(2-amino-6-fluoro-5-(4-(4-isopropylpiperazin-1-yl)phenyl)pyridin-3-yl)-7,8-dihydropyrido[4,3-d]pyrimidin-5(6H)-one] | 0.1 to 10
28 | COc1ccc(-c2cc(-c3ccc4c(c3)CCNC4=O)c(N)nc2F)cc1CN(C)C [I-459, 6-(2-amino-5-(3-((dimethylamino)methyl)-4-methoxyphenyl)-6-fluoropyridin-3-yl)-3,4-dihydroisoquinolin-1(2H)-one] | 11 to 100
29 | CN(C)Cc1cc(-c2cc(-c3ccc4c(c3)CCNC4=O)c(N)nc2F)ccc1N1CCN(C2CCC2)CC1 [I-461, 6-(2-amino-5-(4-(4-cyclobutylpiperazin-1-yl)-3-((dimethylamino)methyl)phenyl)-6-fluoropyridin-3-yl)-3,4-dihydroisoquinolin-1(2H)-one] | 0.1 to 10
